In patent publication US20160209428A1, “DIAGNOSTIC AND PREDICTIVE METABOLITE PATTERNS FOR DISORDERS AFFECTING THE BRAIN AND NERVOUS SYSTEM” (THE REGENTS OF THE UNIVERSITY OF CALIFORNIA, priority 2013, published 2016):

Legend:
[1] = tested on: Fragile X (Fmr1) knockout mouse; assay: Social preference and social novelty, Fragile X model; format: in vivo; details: male Fmr1 KO mice, weekly suramin 20 mg/kg ip
Description: A Fragile X (Fmr1) knockout mouse was used on the FVB strain background. It has the genotype: FVB.129P2-Pde6b^+ Tyr^c-ch Fmr1^tm1Cgr/J (Jackson Stock #004624). The Fmr1^tm1Cgr allele contains a neomycin resistance cassette replacing exon 5 that results in a null allele that makes no FMR mRNA or protein. The control strain used has the genotype: FVB.129P2-Pde6b^+ Tyr^c-ch/AntJ (Jackson Stock #004828). […] The wild-type Pde6b locus from the 129P2 ES cells corrects the retinal degeneration phenotype that produces blindness by 5 weeks of age in typical FVB mice. The Fmr1 locus is X-linked, so males are hemizygous and females are homozygous for the knockout. A metabolomic analysis on Fmr1 knockout mice on the C57BL/6J background was also performed to refine the understanding of which metabolic disturbances were directly related to the Fmr1 knockout, and which were the result of changes in genetic background. For these studies the same Fmr1^tm1Cgr knockout allele bred on the C57BL6/J background was used. These animals had the genotype: B6.129P2-Fmr1^tm1Cgr/J (Jackson Stock#003025). […]
Altered social behavior is a measure of autism-like features in mouse models of autism. […] There was also a 35% reduction in social novelty, as measured by the time spent interacting with a novel mouse compared to a familiar mouse. […]

[2] = tested on: Fragile X (Fmr1) knockout mouse; assay: Body temperature measurements (rectal core temperature); format: in vivo
Description: A BAT-12 Microprobe digital thermometer and RET-3 mouse rectal probe (Physitemp Instruments, Clifton, N.J.) were used to obtain rectal core temperatures to a precision of +/−0.1° C. Care was taken to measure temperatures ≧2 days after cage bedding changes, and to avoid animal transport stress immediately prior to measurement in order to avoid stress-induced hyperthermia (Adriaan Bouwknecht et al., 2007). Temperatures were measured between 9 am to 12 noon each day.
Normal basal body temperature was restored by antipurinergic therapy with suramin.

[3] = tested on: maternal immune activation (MIA) mouse model; assay: T-maze spontaneous alternation, MIA model; format: in vivo; details: MIA animals
Description: Novelty preference was tested as spontaneous alternation behavior in the T-maze. […] (N=8-13, 5.25-month-old males per group).
Novelty preference is an innate feature of normal rodent and human behavior and a predictor of socialization and communication growth in children with ASD. The loss or suppression of novelty preference in children with ASD is associated with the phenomenon known as insistence on sameness. Preference for novelty was estimated as spontaneous alternation behavior in the T-maze. The T-maze can also be used to estimate spatial working memory, especially when food-motivated. […] These deficits were normalized after a single dose of suramin.

[4] = tested on: Fragile X (Fmr1) knockout mouse; assay: Marble burying, Fragile X model; format: in vivo; details: KO-Sal v KO-Sur
Description: Marble burying behavior was measured over 30 minutes by a modification of methods used by Thomas, et al. (Thomas et al., 2009). Marble burying was used as a measure of normal rodent digging behavior. Marble burying has sometimes been considered a measure of anxiety, however, comprehensive genetic and behavioral studies have shown that marble burying is a normal mouse behavior that is genetically determined (Thomas et al., 2009). Marble burying was diminished 38% in Fragile X knockout mice.

cerebral synaptosomes = assay: Synaptosome isolation and ultrastructure (electron microscopy); format: in vivo, mouse; details: suramin-treated Fmr1 KO mice
Description: Cerebral samples were collected, homogenized and synaptosomes isolated by discontinuous Percoll gradient centrifugation, drop dialyzed, glutaraldehyde fixed, post-fixed in osmium tetroxide, embedded, sectioned, and stained with uranyl acetate for transmission electron microscopy. Samples from the FVB control animals (+/−suramin) were not available for study by either electron microscopy or Western analysis.
In the present study of the Fragile X model, saline-treated Fmr1 knockout mice had cerebral synaptosomes that also contained an electron dense matrix, and fragile, hypomorphic post-synaptic densities.

`Cc1ccc(C(=O)Nc2ccc(S(=O)(=O)O)c3cc(S(=O)(=O)O)cc(S(=O)(=O)O)c23)cc1NC(=O)c1cccc(NC(=O)Nc2cccc(C(=O)Nc3cc(C(=O)Nc4ccc(S(=O)(=O)O)c5cc(S(=O)(=O)O)cc(S(=O)(=O)O)c45)ccc3C)c2)c1` [Suramin, suramin] was tested, and the “altered social behavior (social preference, social novelty)” value [1] was “corrected”, the “body temperature of control animals” value ([2]; WT-Sal vs WT-Sur) was “no effect” and the “basal body temperature of Fmr1 knockout mice” value ([2]; relative hypothermia of knockout, suramin treatment) was “restored”. For the same compound, the “novelty preference five weeks after suramin washout” value ([3]; 5 weeks after single dose) was “no residual benefit remained”, the “deficient novelty preference (spontaneous alternation in T-maze)” value ([3]; single dose of suramin) was “normalized” and the diminished marble burying [4] was “improved”. For the same compound, the cerebral synaptosome ultrastructure (cerebral synaptosomes) was “near-normal appearing cerebral synaptosomes”.
